Experiment [1] concerns SHP-77 cells. Put plainly: Internalization of [177Lu]Lu-labeled peptide after glycine acid wash, gamma counter internalized fraction. In kind it is cell-based, human. The settings on record: [177Lu]Lu-test peptide, 1 h, 37° C., acid wash 50 mM Glycine pH 2.5. The method, then:
(§1) Example 4. Cell Binding, Internalization, and Radiolabeling of Targeting Moieties Polypeptides General Procedure for Radiolabeling of RPTs with [^177Lu]LuCl3
(§2) [^177Lu]LuCl3 was received from venders in HCl solution. For every mCi of [^177Lu]LUCl3 added to the reaction vial (1.5 mL Eppendorf vial), ammonium acetate buffer (0.2 M, pH 4.9, 100 μL, containing 1% w/v ascorbic acid and 6% v/v ethanol) and peptide conjugate (1 nmol) was added. The pH of the solution was determined to be approximately 5 by using pH strips. The reaction vial was incubated at 80° C., 700 RPM for 17-20 minutes. A sample from the reaction was analyzed by RP-HPLC using an Agilent Infinity II 1260 HPLC to determine reaction completion and radiochemical purity. HPLC conditions: Waters XBridge BEH […] Column, 130 Å, 3.5 um, 4.6 mm×250 mm; mobile phase: Solvent A=water (with 0.1% formic acid), solvent B=acetonitrile (with 0.1% formic acid). Gradients: 25-45% B in 10 minutes, 45-65% B in 12 minutes, 65-90% in 6 minutes at a flow rate of 0.5 mL/min. Required amounts of the product was formulated in 1% PBSA for cell studies.
(§3) The study was conducted using SHP-77cells (Table 7) Adherent cell studies: The cells were cultured in appropriate culture media (20 mL) in tissue culture treated T150 flasks at 37° C. and 5% CO2. Adherent cells were detached (60-70% confluent) using 5 mL Versene at 37° C. for 3 min. After confirming the viability using countess and count of detached cells using Trypan blue, the cells were centrifuged at 4° C. for 5 minutes (1,000 rpm). The cell pellet obtained was washed once with PBS and resuspended in 1% PBSA to obtain the desired cell concentration (5-25 million cells/mL).
(§4) Suspension cell studies: The cells were cultured in appropriate culture media (20 mL) in tissue culture treated T150 flasks at 37° C. and 5% CO2. After confirming the viability and count of detached cells using Trypan blue, the cells were centrifuged at 4° C. for 5 minutes (1,000 rpm). The cell pellet obtained was washed once with PBS and resuspended in 1% PBSA to obtain the desired cell concentration (5-25 million cells/mL).
(§5) Cell numbers used for the assay were in the range of 5 million cells/condition −25 million cells/condition.
Internalization: The resuspended cells in 300 μl of 1% PBSA and counted in the gamma counter as “bound fraction” were collected in 1.5 ml Eppendorf tube and pelleted. The pelleted cells were incubated with 300 μl of 50 mM Glycine pH=2.5 for 3 minutes and then pelleted discarding the supernatant. This process was repeated one more time. The pelleted cells were washed with 300 μl of cold 1% PBSA and then resuspended in 300 μl 0.3M NaOH. This was counted in the gamma counter as “internalized fraction”.
(§6) SHP-77 cells are human-derived, non-engineered SCLC cells.

Experiment [2] addresses T1, human DLL3 (Homo sapiens, UniProt Q9NYJ7).
T1 construct: biotin (biotinylated)
T1 sequence (Q9NYJ7 27-618): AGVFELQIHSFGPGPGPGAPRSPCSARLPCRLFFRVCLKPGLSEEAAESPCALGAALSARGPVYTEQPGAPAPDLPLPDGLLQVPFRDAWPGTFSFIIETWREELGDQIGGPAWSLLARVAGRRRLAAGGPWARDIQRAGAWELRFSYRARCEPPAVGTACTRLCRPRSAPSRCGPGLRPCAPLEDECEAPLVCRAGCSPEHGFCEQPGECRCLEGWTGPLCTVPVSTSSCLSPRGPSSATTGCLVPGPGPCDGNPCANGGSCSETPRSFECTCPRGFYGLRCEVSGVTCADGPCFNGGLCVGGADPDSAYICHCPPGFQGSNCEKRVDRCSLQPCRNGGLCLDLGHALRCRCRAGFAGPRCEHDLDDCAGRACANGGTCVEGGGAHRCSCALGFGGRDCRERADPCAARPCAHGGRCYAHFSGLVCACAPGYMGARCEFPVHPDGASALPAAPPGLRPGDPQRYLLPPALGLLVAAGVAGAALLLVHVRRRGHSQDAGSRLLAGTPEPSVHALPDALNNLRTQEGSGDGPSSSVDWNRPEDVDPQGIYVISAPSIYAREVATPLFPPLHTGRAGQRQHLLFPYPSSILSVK
The experiment can be described thus: Affinity determination by Surface Plasmon Resonance (SPR), Biacore, 1:1 binding model. The conditions noted are these: biotinylated human DLL3 on streptavidin chip, 25° C.; NB = nonbinding. Summed up:
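SPR with biotinylated human DLL3 captured on a streptavidin chip, with a reference surface subtracted. Samples were injected at several concentrations at 100 μL/min in phosphate buffer with 137 mM NaCl, 2.7 mM KCl, 0.05% P20 and 2% DMSO. Kinetic and affinity constants came from a 1:1 binding fit.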

Experiment [3] has as its system SHP-77 cells. The experiment can be described thus: Cell binding (total uptake) of [177Lu]Lu-labeled peptide, gamma counter bound fraction. In kind it is cell-based, human. The conditions noted are these: [177Lu]Lu-test peptide, 1 h, 37° C., 1% PBSA. The method, then:
as §1, §2, §3, §4, §5
Total uptake: Cells were incubated with 300 μL (0.8 μCi) of the incubation buffer (containing radiolabeled peptide [^177Lu]Lu-test peptide) for 1 hour at 37 C (Table 8). Post incubation, the cells were pelleted and washed 2 times using cold PBS+1% BSA. The supernatant and washes were combined and counted together as “unbound fraction” in a gamma counter. The cells were then resuspended in 300 μL of 1% PBS+1% BSA and counted in the gamma counter as “bound fraction”.
as §6

Broadly, the Kd is the constant that tells how readily two partners part at equilibrium.

Numbered stars: 1 amine (or outer) side, 2 acyl side, 3 side chain; on linkers, the order of the positions; unused ones are H or OH. Bridge positions count the residues as written; N and C are the ends. Square brackets hold non-standard residues; d marks the D form. Peptide text beside a SMILES is read from it. * marks the point of attachment. Ala(piperidin-4-yl) = O=C([C@H](CC1CCN([*:3])CC1)N[*:1])[*:2]; DOTA = O=C(O)CN1CCN(CC(=O)O)CCN(CC(=O)*)CCN(CC(=O)O)CC1; Phe(4-CH2NH2) = NCc1ccc(C[C@H](N)C(=O)O)cc1; 1Nal = N[C@@H](Cc1cccc2ccccc12)C(=O)O; 2Nal = N[C@@H](Cc1ccc2ccccc2c1)C(=O)O; Phe(2-Me) = Cc1ccccc1C[C@H](N)C(=O)O; tBuAla = CC(C)(C)C[C@H](N)C(=O)O; αMeD = C[C@](N)(CC(=O)O)C(=O)O; Chg = N[C@H](C(=O)O)C1CCCCC1; αMeP = C[C@@]1(C(=O)O)CCCN1; NMeS = CN[C@@H](CO)C(=O)O; Ahx = NCCCCCC(=O)O

On to `CC(=O)N[C@H](C)C(=O)N[C@@H](CO)C(=O)N[C@@](C)(CC(=O)O)C(=O)N[C@H]1CSSC[C@@H](C(=O)N2CCC[C@@]2(C)C(=O)N[C@@H](Cc2ccccc2)C(=O)N[C@@H](CC(=O)O)C(=O)N[C@H](CCCCNC(=O)CN2CCN(CC(=O)O)CCN(CC(=O)O)CCN(CC(=O)O)CC2)C(N)=O)NC(=O)[C@H](CC(N)=O)NC(=O)[C@H](Cc2ccc3ccccc3c2)NC(=O)[C@H](CCC(N)=O)NC(=O)[C@H](CC(C)(C)C)NC(=O)[C@H](Cc2cccc3ccccc23)NC1=O` [Cpd #168, Ac-(D-Ala)-S-(aMe-Asp)-C(3)-(1Nal)-(t-Bu-Ala)-Q-(2Nal)-N-C(3)-(aMe-P)-F-D-[D-Lys(DOTA)]-NH2] (Ac-[dA]S[αMeD]C[1Nal][tBuAla]Q[2Nal]NC[αMeP]FD[dK](DOTA)-NH2; disulfide 4-10), for which the “% Internalization (out of bound fraction)” value in experiment [1] is given as 59%. In addition, in experiment [2], the Kd was 0.026 nM. The “% Binding” value in experiment [3] came out at 8%.
Turning to `CC(=O)N[C@H](C(=O)N[C@@H](CO)C(=O)N[C@@H](CC(=O)O)C(=O)N[C@H]1CSSC[C@@H](C(=O)N2CCC[C@@]2(C)C(=O)N[C@@H](Cc2ccccc2)C(=O)N[C@@H](CC(=O)O)C(=O)N[C@H](CCCCNC(=O)CN2CCN(CC(=O)O)CCN(CC(=O)O)CCN(CC(=O)O)CC2)C(N)=O)NC(=O)[C@H](CC(N)=O)NC(=O)[C@H](Cc2ccc3ccccc3c2)NC(=O)[C@H](CCC(N)=O)NC(=O)[C@H](C2CCCCC2)NC(=O)[C@H](Cc2cccc3ccccc23)NC1=O)C1CCCCC1` [compound 125, Ac-(Chg)-S-D-C(3)-(1Nal)-(Chg)-Q-(2Nal)-N-C(3)-(aMe-P)-F-D-D-Lys(DOTA)-CONH2] (Ac-[Chg]SDC[1Nal][Chg]Q[2Nal]NC[αMeP]FD[dK](DOTA)-NH2; disulfide 4-10), the “% Internalization (out of bound fraction)” value in experiment [1] was found to be 51%. Further, the Kd in experiment [2] turned out to be 0.16 nM. The “% Binding” value in experiment [3] was determined as 17%.
As to `Cc1ccccc1C[C@H](NC(=O)[C@]1(C)CCCN1C(=O)[C@@H]1CSSC[C@H](NC(=O)[C@H](CC(=O)O)NC(=O)[C@H](CO)NC(=O)[C@@H](C)NC(=O)CN2CCN(CC(=O)O)CCN(CC(=O)O)CCN(CC(=O)O)CC2)C(=O)N[C@@H](Cc2cccc3ccccc23)C(=O)N[C@@H](CC(C)(C)C)C(=O)N[C@@H](CCC(N)=O)C(=O)N[C@@H](Cc2ccc3ccccc3c2)C(=O)N[C@@H](CC(N)=O)C(=O)N1)C(=O)N[C@@H](CC(=O)O)C(N)=O` [compound 154, DOTA-(D-Ala)-S-D-C(3)-(1Nal)-(t-Bu-Ala)-Q-(2Nal)-N-C(3)-(aMe-P)-(2Me-F)-D-CONH2] ({DOTA}-[dA]SDC[1Nal][tBuAla]Q[2Nal]NC[αMeP][Phe(2-Me)]D-NH2; disulfide 4-10), the “% Internalization (out of bound fraction)” value in experiment [1] came out at 58%. In experiment [2], the Kd is 0.18 nM. Further, in experiment [3], the “% Binding” value was found to be 10%.
Turning to `CC(=O)N[C@H](C)C(=O)N[C@@H](CO)C(=O)N[C@@H](CC(=O)O)C(=O)N[C@H]1CSSC[C@@H](C(=O)N2CCC[C@@]2(C)C(=O)N[C@@H](Cc2ccccc2)C(=O)N[C@@H](CC(=O)O)C(=O)N[C@H](CCCCNC(=O)CN2CCN(CC(=O)O)CCN(CC(=O)O)CCN(CC(=O)O)CC2)C(N)=O)NC(=O)[C@H](CC(=O)O)NC(=O)[C@H](Cc2ccc3ccccc3c2)NC(=O)[C@H](C)NC(=O)[C@H](CC(C)(C)C)NC(=O)[C@H](Cc2cccc3ccccc23)NC1=O` [compound 166, Ac-(D-Ala)-S-D-C(3)-(1Nal)-(t-Bu-Ala)-Ala-(2Nal)-D-C(3)-(aMe-P)-F-D-[D-Lys(DOTA)]-NH2] (Ac-[dA]SDC[1Nal][tBuAla]A[2Nal]DC[αMeP]FD[dK](DOTA)-NH2; disulfide 4-10), the “% Internalization (out of bound fraction)” value in experiment [1] was found to be 58%. This molecule yielded a Kd in experiment [2] of 0.049 nM. In addition, the “% Binding” value in experiment [3] is given as 7%.
On the same counts, the results for `CC(C)(C)C[C@@H]1NC(=O)[C@H](Cc2cccc3ccccc23)NC(=O)[C@@H](NC(=O)[C@H](CC(=O)O)NC(=O)[C@H](CO)NC(=O)CCCCCNC(=O)CN2CCN(CC(=O)O)CCN(CC(=O)O)CCN(CC(=O)O)CC2)CSSC[C@@H](C(=O)N2CCC[C@@]2(C)C(=O)N[C@@H](Cc2ccccc2)C(=O)N[C@@H](CC(=O)O)C(N)=O)NC(=O)[C@H](CC(N)=O)NC(=O)[C@H](Cc2ccc3ccccc3c2)NC(=O)[C@H](CC2CCNCC2)NC1=O` [compound 176, DOTA-Ahx-S-D-C(3)-(1Nal)-(t-Bu-Ala)-[3-(4-piperidinyl)-Ala]-(2Nal)-N-C(3)-(aMe-P)-F -D-CONH2] ({DOTA-Ahx}-SDC[1Nal][tBuAla][Ala(piperidin-4-yl)][2Nal]NC[αMeP]FD-NH2; disulfide 3-9) are 53%, 0.047 nM and 6%.
On the same counts, the results for `CC(=O)N[C@@H](CC1CCNCC1)C(=O)N(C)[C@@H](CO)C(=O)N[C@@H](CC(=O)O)C(=O)N[C@H]1CSSC[C@@H](C(=O)N2CCC[C@@]2(C)C(=O)N[C@@H](Cc2ccccc2)C(=O)N[C@@H](CC(=O)O)C(N)=O)NC(=O)[C@H](CC(N)=O)NC(=O)[C@H](Cc2ccc3ccccc3c2)NC(=O)[C@H](Cc2ccc(CNC(=O)CN3CCN(CC(=O)O)CCN(CC(=O)O)CCN(CC(=O)O)CC3)cc2)NC(=O)[C@H](CC(C)(C)C)NC(=O)[C@H](Cc2cccc3ccccc23)NC1=O` [compound 191, Ac-[3-(4-piperidinyl)-Ala]-(NMe-Ser)-D-C(3)-(1Nal)-(t-Bu-Ala)-[PAF(DOTA)]-(2Nal)-N-C(3)-(aMe-P)-F-D-CONH2] (Ac-[Ala(piperidin-4-yl)][NMeS]DC[1Nal][tBuAla][Phe(4-CH2NH2)](DOTA)[2Nal]NC[αMeP]FD-NH2; disulfide 4-10) are 48%, 0.21 nM and 10%.
On the same counts, the results for `CC(=O)N[C@@H](CC1CCNCC1)C(=O)N(C)[C@@H](CO)C(=O)N[C@@H](CC(N)=O)C(=O)N[C@H]1CSSC[C@@H](C(=O)N2CCC[C@@]2(C)C(=O)N[C@@H](Cc2ccccc2)C(=O)N[C@@H](CC(=O)O)C(N)=O)NC(=O)[C@H](CC(N)=O)NC(=O)[C@H](Cc2ccc3ccccc3c2)NC(=O)[C@H](Cc2ccc(CNC(=O)CN3CCN(CC(=O)O)CCN(CC(=O)O)CCN(CC(=O)O)CC3)cc2)NC(=O)[C@H](CC(C)(C)C)NC(=O)[C@H](Cc2cccc3ccccc23)NC1=O` [compound 192, Ac-[3-(4-piperidinyl)-Ala]-(NMe-Ser)-N-C(3)-(1Nal)-(t-Bu-Ala)-[PAF(DOTA)]-(2Nal)-D-C(3)-(aMe-P)-F-D-CONH2] (Ac-[Ala(piperidin-4-yl)][NMeS]NC[1Nal][tBuAla][Phe(4-CH2NH2)](DOTA)[2Nal]NC[αMeP]FD-NH2; disulfide 4-10) are 45%, 0.27 nM and 9%.

The values are drawn from patent US20250186541A1, “DLL3 TARGETING PEPTIDES AND CONSTRUCTS THEREOF” (MARIANA ONCOLOGY INC., priority 2023, published 2025).
